Biological target: T1, OA/TAT (octopamine/tyramine transporter) (Trichoplusia ni, UniProt Q95VZ4, D309A/R312W)
T1 sequence (Q95VZ4 75-744 D309A/R312W): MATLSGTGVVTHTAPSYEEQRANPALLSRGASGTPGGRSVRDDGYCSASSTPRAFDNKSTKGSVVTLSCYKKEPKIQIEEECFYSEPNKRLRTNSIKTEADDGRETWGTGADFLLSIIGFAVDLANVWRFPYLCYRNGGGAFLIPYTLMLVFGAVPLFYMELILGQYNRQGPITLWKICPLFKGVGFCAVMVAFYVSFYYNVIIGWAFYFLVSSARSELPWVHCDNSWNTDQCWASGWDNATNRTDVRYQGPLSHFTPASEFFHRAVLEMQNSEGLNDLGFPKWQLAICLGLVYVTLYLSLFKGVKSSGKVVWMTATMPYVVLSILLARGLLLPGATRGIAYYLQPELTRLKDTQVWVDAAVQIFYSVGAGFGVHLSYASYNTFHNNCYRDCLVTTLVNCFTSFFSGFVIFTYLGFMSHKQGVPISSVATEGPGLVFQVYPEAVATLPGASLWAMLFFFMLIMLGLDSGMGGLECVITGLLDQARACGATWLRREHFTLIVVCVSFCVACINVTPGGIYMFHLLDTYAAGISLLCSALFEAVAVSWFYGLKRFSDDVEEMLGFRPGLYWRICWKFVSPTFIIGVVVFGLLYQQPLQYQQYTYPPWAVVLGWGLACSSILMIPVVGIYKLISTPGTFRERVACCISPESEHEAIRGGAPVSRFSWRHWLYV
Assay: 3H-dopamine uptake by OA/TAT expressed in baculovirus-infected Sf21 insect cells (transport assay)
Format: cell-based
Details: for inhibition at 10 µM: read-out: % Inhibition of 3H-Dopamine uptake by OA/TAT

NCCc1ccc(O)c(O)c1 [Dopamine, 3-Hydroxytyramine]
IC50: 4100 ± 1020 nM
Ki: 3720 ± 920 nM
inhibition at 10 µM: 70.2%

NC[C@H](O)c1ccc(O)c(O)c1 [Norepinephrine, (−)-Arterenol]
IC50: 22000 ± 2940 nM
Ki: 20000 ± 2670 nM
inhibition at 10 µM: 27.2%

NCCc1ccc(O)cc1 [Tyramine]
IC50: 390 ± 110 nM
Ki: 350 ± 100 nM
inhibition at 10 µM: 96.5%

NCC(O)c1ccc(O)cc1 (racemic) [Octopamine, DL-Octopamine]
IC50: 1920 ± 280 nM
Ki: 1740 ± 250 nM
inhibition at 10 µM: 80.9%

NCCc1c[nH]c2ccc(O)cc12 [Serotonin, 5-Hydroxytryptamine]
inhibition at 10 µM: -3.6%

NCCc1c[nH]c2ccccc12 [Tryptamine]
inhibition at 10 µM: 9.57%

CNCC(O)c1ccc(O)cc1 (racemic) [Synephrine, (±)-Synephrine]
inhibition at 10 µM: 6.39%

NCCc1c[nH]cn1 [Histamine]
inhibition at 10 µM: -1.81%

Fc1ccc(C(OCCN2CCN(CCCc3ccccc3)CC2)c2ccc(F)cc2)cc1 [GBR12909]
inhibition at 10 µM: -10%

CN[C@@H](C)[C@@H](O)c1ccccc1 [Pseudoephedrine, (−)-ψ-Ephedrine]
inhibition at 10 µM: 1.31%
